In PubChem BioAssay (NCI) one finds GI50 and TGI data, which are given here for 6 compounds.

Holding throughout (test): inhibition of tumour cell growth, NCI panel, 48 h
The test system of assay [1] is ACHN renal.
Assay [2] relates to BT-549 breast.
In assay [3] the test system is CAKI-1 renal.
The test system of assay [4] is CCRF-CEM leukemia.
Assay [5] concerns HOP-62 NSCLC.
Assay [6] concerns K-562 leukemia.
Assay [7] relates to M14 melanoma.
Assay [8] relates to SF-539 CNS.
Assay [9] deals with T-47D breast.
In assay [10] the test system is UO-31 renal.

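Dose response: 5 concentrations. Exposure: 48 h. Format: 96-well plates. Endpoint: linear interpolation; highest concentration if not reached. GI50: concentration for 50% inhibition of growth. TGI is the concentration that stops growth completely.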

With `COc1cc(Cc2cnc(/N=C3\C(=O)N(CN4CCN(c5c(F)cc6c(=O)c(C(=O)O)cn(C7CC7)c6c5OC)CC4C)c4ccc(F)cc43)nc2N)cc(OC)c1OC` (stereo not given), the GI50 in assay [1] was 1720 nM; in assay [2], 19700 nM; in assay [3], 15500 nM; in assay [4], 1300 nM; in assay [5], 14400 nM; in [6], 6410 nM. In addition, the GI50 in assay [7] was 10300 nM; in assay [8], 19900 nM; in [9], 2850 nM; in [10] it was 31700 nM. In addition, the TGI in assay [1] was 14600 nM; in assay [2], 49200 nM; in assay [3], 36000 nM; in [4], 4260 nM; in assay [5] it was 27400 nM; in assay [6], over 100000 nM. The TGI was 22000 nM in assay [7], 47500 nM in assay [8], 24300 nM in [9] and over 100000 nM in [10].

Regarding `COc1cc(-c2nn(-c3ccc(NC(=O)c4ccc(Cl)c(C(F)(F)F)c4)cc3)cc2-c2ccncc2)ccc1Cl`, the GI50 in assay [1] was 3350 nM; in assay [2] it was 3080 nM; in assay [3], 1710 nM; in [4], 2500 nM; in assay [5], 2070 nM; in [6], 1810 nM. Besides, the GI50 is 2510 nM in [7], 1830 nM in assay [8], 2980 nM in assay [9] and 1650 nM in assay [10]. Moreover, the TGI in [1] was over 100000 nM; in [2], 32500 nM; in assay [3] it was 7290 nM; in assay [4], over 100000 nM; in [5] it was 7070 nM; in assay [6] it was 5670 nM. Also, the TGI in assay [7] is 8260 nM; in assay [8], 8600 nM; in assay [9], over 100000 nM; in assay [10], 5460 nM.

In the case of `CCCCCN(CCCCC)CC(O)c1cc(C)c2ccc3cc(C(C)C)ccc3c2c1` (stereo not given), the GI50 in assay [1] is 1600 nM; in assay [2] it was 1850 nM; in assay [3], 1400 nM; in assay [4], 2190 nM; in assay [5], 2120 nM; in [6], 2170 nM. The GI50 is 1770 nM in assay [7], 1790 nM in assay [8], 1950 nM in assay [9] and 1480 nM in [10]. Besides, the TGI in assay [1] was determined as 3050 nM; in [2] it was 3510 nM; in assay [3], 2810 nM; in assay [4], 5530 nM; in assay [5], 5700 nM; in assay [6], 4460 nM. Also, the TGI in [7] was 3700 nM; in assay [8], 3360 nM; in [9] it was 4380 nM; in [10], 2990 nM.

Turning to `CC(C)CCC[C@@H](C)[C@H]1CC[C@H]2[C@@H]3CC=C4C[C@@H](C(C(=O)O)C(=O)O)CC[C@]4(C)[C@H]3CC[C@]12C`, the GI50 in [1] is 150 nM; in assay [2], 197 nM; in [3] it was 76 nM; in [4] it was 112 nM; in assay [5], 176 nM; in assay [6], 144 nM. The GI50 in assay [7] is 186 nM; in assay [8], 107 nM; in [9], 188 nM; in [10] it was 137 nM. Also, the TGI in [1] is 662 nM; in [2], 2210 nM; in assay [3], 199 nM; in assay [4], 913 nM; in assay [5], 747 nM; in assay [6], 2000 nM. Further, the TGI was determined as 1760 nM in assay [7], 407 nM in [8], 2800 nM in assay [9] and 467 nM in assay [10].

As to `O=C1C(Cl)=C(Nc2cccc(Cl)c2)C(=O)N1Cc1ccc(Cl)cc1Cl`, the GI50 is 409 nM in [1]; 66.3 nM in assay [2]; 5360 nM in assay [3]; 4380 nM in assay [4]; 5610 nM in assay [5]; 834 nM in [6]. Moreover, the GI50 was 4870 nM in assay [7], under 46.6 nM in assay [8], 1720 nM in [9] and 431 nM in assay [10]. The TGI in [1] was 7710 nM; in [2], 7480 nM; in assay [3] it was 48500 nM; in assay [4], over 100000 nM; in [5], 22800 nM; in assay [6], over 87500 nM. Besides, the TGI in assay [7] is 21900 nM; in assay [8], 2920 nM; in [9], over 41800 nM; in assay [10], 3450 nM.

As to `C#Cc1ccc(-n2c(/C=C/c3ccc(C(F)(F)F)cc3)nc3ncccc3c2=O)cc1`, the GI50 in assay [1] is 1710 nM; in [2] it was 1710 nM; in assay [3], 2260 nM; in assay [4] it was 1950 nM; in [5] it was 2430 nM; in assay [6] it was 2960 nM. Also, the GI50 was 2070 nM in assay [7], 1680 nM in assay [8], 2020 nM in assay [9] and 1430 nM in assay [10]. For the same compound, the TGI is 3260 nM in assay [1]; 3370 nM in assay [2]; 6220 nM in [3]; over 100000 nM in assay [4]; 5110 nM in [5]; 8710 nM in assay [6]. The TGI amounted to 4270 nM in [7], 3170 nM in assay [8], 4970 nM in assay [9] and 3670 nM in assay [10].
